Laboratory results: US20160067162A1, “PHOTOPROTECTIVE COMPOUNDS, COMPOSITIONS INCLUDING SAME AND USES THEREOF” (UNIVERSITE DE RENNES 1, priority 2013, published 2016)

Columns and labels:
Format in all cases: physicochemical
[1] = SPF measurement, Protocol II (Nantes): O/W emulsion on PMMA plate, transmission with integrating sphere
Description: The SPF measurement is carried out according to the protocol described in Lohézic-Le Dévéhat F., Legouin B., Couteau C., Boustie J., Coiffard L. “Lichenic extracts and metabolites as UV filters” Journal of Photochemistry and Photobiology B: Biology 120 (2013) 17-28:
An emulsion having the following formulation is used: […]
The two phases are prepared separately. The hydrophilic phase is then added, with stirring, to the lipophilic phase. The products are finally incorporated at 1% into this O/W emulsion. 30 mg of the whole mixture are distributed over the entire surface area (25 cm^2) of a PMMA plate using a finger store. After spreading, 15 mg remain on the finger store. Three plates are prepared per product and nine measurements are carried out. The transmission measurements between 290 and 400 nm for the SPF and between 320 and 400 nm for the UVA-PF are carried out using a spectrophotometer equipped with an integrating sphere (UV Transmittance analyzer UV1000S, Labsphere, North Sutton, US).
(§1) The SPF and UVA-PF values are, for the two protocols, calculated from the following equations: […]
(§2) where Eλ is the erythemogenic effect of the radiation at the wavelength λ; Sλ is the spectral solar irradiance at the wavelength λ and Tλ is the spectral transmittance of the product at the wavelength λ, λc is the critical wavelength which corresponds to the wavelength at which 90% of the area under the curve (AUC) is integrated between 290 and 400 nm. The UVA/UVB ratio corresponds more specifically to the ratio of the area under the curve between 315 and 400 nm to the area under the curve between 280 and 315 nm.

[2] = UV spectrum measurement in CHCl3 (λmax, molar extinction coefficient)
Description: The products are diluted in CHCl3 so as to obtain a solution at 10^−4M. The UV spectra are measured using a Uvikon 931 UV-vis spectrophotometer, Serlabo Technologies, Entraigues sur la Sorgue, France. This UV spectrum makes it possible to determine the molar extinction coefficient (mol^−1 L cm^−1) at the λmax by virtue of the Beer-Lambert law: c=A/l×C;
A=value of the absorbance at the λmax; l=length of the cuvette in cm (l=1);
C=concentration of the solution=1×10^−4 mol/l. The theoretical λmax was determined for certain products by DFT calculation.

[3] = SPF measurement, Protocol I (Rennes): simplified O/W emulsion, UV spectrum 200-400 nm
Description: The SPF measurement is carried out according to the following protocol described in Le Dévéhat F., Malargé A., Couteau C., Coiffard L., Legouin B. “Evaluation of a new UV-filter screening method”, 4th symposium of the AFERP “Biodiversity, chimie des substances naturelles et medicaments” [“Biodiversity, chemistry of natural substances and medicaments”] and 3rd Franco-Pakistani symposium, Besançon (France), Jul. 16-17-18, 2010. A solution of each product dissolved in dimethyl sulfoxide is incorporated at 10% into a simplified emulsion of oil-in-water (O/W) type consisting of liquid paraffin, water and SDS at 10%, the whole mixture taken up in absolute ethanol. The UV spectrum of each solution is recorded between 200 nm and 400 nm in a 10 mm quartz cell on a Uvikon 931 UV-vis spectrophotometer and measured in comparison with a control 10% emulsion solution.
as §1, §2

λmax exp ([2]; 10^−4 M in CHCl3): 330 nm
ε (molar extinction coefficient at the λmax) ([2]; 10^−4 M in CHCl3, 1 cm cuvette): 16259 L/mol/cm
Compound: COc1ccc(C2=CC(=O)CCN2)cc1 [Compound 3, 6-(4-methoxyphenyl)-2,3-dihydropyridin-4(1H)-one]
λc (p.II) ([1]; critical wavelength): 384 nm
SPF (p.II, at 1%) ([1]; product at 1% in O/W emulsion, PMMA plate, 290-400 nm): 1.25 ± 0.04
Colipa UVA-PF (p.II, at 1%) ([1]; product at 1%, 320-400 nm): 1.33 ± 0.04
λc p.I ([3]; critical wavelength, protocol I): 362 nm
Colipa UVA-PF p.I, at 10% ([3]; protocol I, product at 10%): 9.16 ± 0.10
SPF p.I, at 10% ([3]; protocol I, product at 10% in simplified O/W emulsion): 4.30 ± 0.12
UVA/UVB ([3]; ratio of area under the curve 315-400 nm to 280-315 nm): 2.85 ± 0.01
